The target in series [1] is T1, AT2R (Homo sapiens, UniProt P50052).
T1 construct: purchased Cisbio C1TT1AT2
T1 sequence (P50052 1-363): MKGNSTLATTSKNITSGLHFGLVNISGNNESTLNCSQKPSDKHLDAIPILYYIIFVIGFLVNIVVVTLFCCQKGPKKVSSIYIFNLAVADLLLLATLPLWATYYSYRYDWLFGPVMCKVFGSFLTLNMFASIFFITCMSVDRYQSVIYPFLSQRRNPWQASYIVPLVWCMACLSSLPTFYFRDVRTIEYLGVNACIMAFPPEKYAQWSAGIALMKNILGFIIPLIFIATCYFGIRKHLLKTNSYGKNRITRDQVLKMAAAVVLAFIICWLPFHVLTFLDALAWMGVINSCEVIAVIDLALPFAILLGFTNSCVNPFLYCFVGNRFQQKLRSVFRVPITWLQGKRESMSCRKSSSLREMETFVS
The series can be described thus: Binding assay of compounds to AT2R (Tag-lite HTRF ligand binding kit). The settings on record: labeled cells, Tag-lite red fluorescent labeled ligand, 1 hour at room temperature. On the procedure:
The assay was performed in accordance with the manufacturer instructions of Angiotensin AT2 Receptor Ligand Binding Assay Kit (#C1TT1AT2, Cisbio). First, a 10 mM compound stock solution was diluted in a gradient at a 5× dilution ratio (including 10 concentrations, each with two replicates). 160 nL of compounds at different concentrations was added to a 384-well plate. 40 µL of 1× TLB was added to each well, and the mixture was shaken at room temperature for 15 minutes. A 15 mL centrifuge tube added with 5 mL of 1×TLB was prepared in advance. The frozen labeled cells were thawed in a water bath at 37°C (for 1 to 2 minutes), and the thawed cells were quickly transferred to the above 15 mL centrifuge tube. The mixture was mixed well and centrifuged at 1,000 g at room temperature for 5 minutes. The supernatant was removed, and the cells were resuspended by adding 2.7 mL 1× TLB. A new 384-well plate was taken, and 10 µL of mixed cells were added into the corresponding wells according to the assay design. 5 µL of 4× compound solution and 5 µL of 4× Tag-lite red fluorescent labeled ligand were added to each well. After incubation at room temperature for 1 hour, data was read using EnVision with an HTRF mode. The excitation light intensities at 665nM and 615nM in each well were read respectively, and the ratio was calculated (Ratio=A665nM/B615nM). The IC50 value was calculated by means of GraphPad Prism8 software, where X represents logarithmic value of compound concentration; and Y represents ratio of A665nM/B615nM. [Table 1] Binding activity of compounds to AT2R
On the technique in general: TR-FRET usually uses a lanthanide donor and a delayed reading to cut background.

Series [2] can be described thus: Pharmacokinetic test in rats. It counts as in vivo. The note with it: rat; male SD rats, oral administration by gavage, 10 mg/kg, plasma. As for the experimental part:
For the pharmacokinetic test of rats, 3 male SD rats (180 g to 240 g) were employed and fasted overnight. The rats were orally administered a dose of 10 mg/kg by gavage. Blood was collected before the administration, and at 15 minutes, 30 minutes, 1 hour, 2 hours, 4 hours, 6 hours, 8 hours, and 24 hours after the administration. The blood samples were centrifuged at 8,000 rpm and at 4°C for 6 minutes, and plasma was collected and stored at -20°C. The plasma at each time point was taken and mixed with 3 to 5 volumes of an acetonitrile solution containing an internal standard. The mixture was vortexed for 1 minute, and centrifuged at 13,000 rpm and at 4°C for 10 minutes. The supernatant was collected and mixed with 3 volumes of water. An appropriate amount of the mixture was taken for LC-MS/MS analysis. The main pharmacokinetic parameters were analyzed by a non-compartmental model using WinNonlin 7.0 software. [Table 2] Results of Pharmacokinetic Test in Rats

For series [3], the target named is T2, hERG potassium channel (Homo sapiens, UniProt Q12809).
T2 construct: host or cells: HEK-293
T2 sequence (Q12809 whole entry): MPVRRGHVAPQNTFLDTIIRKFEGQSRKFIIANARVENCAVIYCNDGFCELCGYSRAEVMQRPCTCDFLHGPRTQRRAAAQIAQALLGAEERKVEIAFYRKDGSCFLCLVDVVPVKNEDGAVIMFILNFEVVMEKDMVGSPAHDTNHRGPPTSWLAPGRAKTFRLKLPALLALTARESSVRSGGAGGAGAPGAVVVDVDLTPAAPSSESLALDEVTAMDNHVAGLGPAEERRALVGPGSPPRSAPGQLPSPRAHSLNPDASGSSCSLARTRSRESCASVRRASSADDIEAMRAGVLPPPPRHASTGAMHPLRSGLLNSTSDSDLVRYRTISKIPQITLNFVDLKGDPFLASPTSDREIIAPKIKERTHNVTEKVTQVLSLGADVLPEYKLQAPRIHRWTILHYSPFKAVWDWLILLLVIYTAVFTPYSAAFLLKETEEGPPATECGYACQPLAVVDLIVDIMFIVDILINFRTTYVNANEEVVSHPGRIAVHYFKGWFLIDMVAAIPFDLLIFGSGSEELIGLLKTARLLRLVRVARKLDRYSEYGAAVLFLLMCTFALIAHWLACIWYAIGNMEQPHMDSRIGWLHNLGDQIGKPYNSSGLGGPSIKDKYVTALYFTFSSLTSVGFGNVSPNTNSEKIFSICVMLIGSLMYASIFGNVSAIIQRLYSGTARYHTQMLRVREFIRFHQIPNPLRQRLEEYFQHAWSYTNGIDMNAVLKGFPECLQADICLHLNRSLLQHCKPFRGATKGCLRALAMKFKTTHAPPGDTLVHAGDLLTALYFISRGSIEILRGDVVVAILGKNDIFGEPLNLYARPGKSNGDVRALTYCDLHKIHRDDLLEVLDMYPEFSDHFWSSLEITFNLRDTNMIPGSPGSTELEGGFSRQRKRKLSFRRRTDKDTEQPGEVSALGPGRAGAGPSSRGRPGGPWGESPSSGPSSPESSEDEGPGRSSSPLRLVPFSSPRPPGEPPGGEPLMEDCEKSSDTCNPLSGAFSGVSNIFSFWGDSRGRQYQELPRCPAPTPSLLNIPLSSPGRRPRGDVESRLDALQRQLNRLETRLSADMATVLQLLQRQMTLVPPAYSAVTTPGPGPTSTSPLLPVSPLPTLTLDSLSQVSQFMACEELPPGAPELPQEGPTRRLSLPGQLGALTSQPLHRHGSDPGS
The series can be described thus: Effects on hERG channel currents by manual patch-clamp. In kind it is cell-based. The note with it: HEK-293 cell line stably expressing hERG potassium channel, tail current, room temperature; read-out: IC50 (inhibitory effects on hERG). On the procedure:
A manual patch-clamp assay was conducted using an HEK-293 cell line stably expressing an hERG potassium channel. hERG potassium channel cells were purchased from Creacell Co., Ltd. (catalog No.: A-0320). Final concentrations of test compounds were freshly prepared on the day of the assay, and then the test compounds were dissolved in an extracellular solution. The extracellular solution (mM) was: […], 3.5 mM KCl, 1 mM MgCl2·6H2O, 2 mM CaCl2·2H2O, 10 mM D-Glucose, 10 mM HEPES, 1.25 mM NaH2PO4·2H2O; pH 7.4 (titrated with NaOH). An intracellular solution (mM) was: 20 mM KCl, 115 mM K-Aspartic, 1 mM MgCl2·6H2O, 5 mM EGTA, 10 mM HEPES, 2 mM Na2-ATP; pH 7.4 (titrated with KOH).
Electrophysiological Assay: After whole-cell patch-clamp formation, the cell membrane potential was clamped at -80 mV. The holding potential was depolarized to -50 mV from -80 mV and maintained for 0.5 seconds (for leak current detection), then stepped to 30 mV for 2.5 seconds, and then rapidly repolarized back to -50 mV for 4 seconds to elicit a tail current of the hERG channel. Data was collected repeatedly every 10 seconds to observe the effects of the drug on hERG tail current (Peak tail currentcompound). A stimulation at -50 mV for 0.5 seconds was used for the leak current detection. Drug administration was initiated after the hERG current recorded in the whole-cell configuration stabilized. After each drug concentration was applied for 5 minutes (or until the current stabilized), the next concentration was tested. One or more concentrations were tested for each test compound. A current detected in each cell in a compound-free extracellular solution (Peak tail currentControl) served as an internal control for the corresponding cell. […]
Data Analysis: The inhibition rate corresponding to each drug concentration was calculated (1-(Peak tail currentcompound/Peak tail currentControl)), and the concentration-response curves were fitted using nonlinear regression in GraphPad Prism software. The IC50 value of each compound was calculated using the following equation: Y=1/(1+10^((LogIC50-X)×HillSlope)). […]
Background: hERG is a cardiac potassium channel; its block is linked to QT prolongation.

Series [4] can be described thus: Pharmacokinetic test in canines. In kind it is in vivo. The settings on record: dog; male Beagle canines, oral gavage, 5 mg/kg, plasma. As for the experimental part: For the pharmacokinetic test of canines, 3 male Beagle canines (10 kg to 12 kg) were employed and fasted overnight. The canines were orally administered a dose of 5 mg/kg by gavage. Blood was collected before the administration, and at 5 minutes, 15 minutes, 30 minutes, 1 hour, 2 hours, 4 hours, 6 hours, 8 hours, and 24 hours after the administration. The blood samples were centrifuged at 6,000 g and at 2°C to 8°C for 3 minutes, and plasma was collected and stored at -20°C. The plasma at each time point was taken and mixed with 10 volumes of a 50% methanol in acetonitrile solution containing an internal standard. The mixture was vortexed for 5 minutes, and centrifuged at 4,000 rpm and at 4°C for 5 minutes. The supernatant was collected and mixed with 1 volume of water. An appropriate amount of the mixture was taken for LC-MS/MS analysis. The main pharmacokinetic parameters were analyzed by a non-compartmental model using WinNonlin 7.0 software. [Table 3] Results of Pharmacokinetic Test in Canines

Consider `CC(C)Cc1cc(C(F)F)c(-c2nn[nH]n2)c(N2CCN(Cc3cccnn3)[C@@H](C)C2)c1` [Compound I-4, (S)-3-((4-(3-(difluoromethyl)-5-isobutyl-2-(2H-tetrazol-5-yl)phenyl)-2-methylpiperazin-1-yl)methyl)pyridazine], for which, in series [1], the IC50 (in general, the concentration needed to halve the response being measured) turned out to be 4.1 nM. Besides, in series [2], the AUC(0-t) (commonly exposure summed from dosing to a finite time, without extrapolation to infinity) worked out at 14100 ng·h/mL and the concentration peaked (Cmax) at 4380 ng/mL. Also, the IC50 in series [3] is over 30000 nM.
Consider `CC(C)Cc1cc(OC(F)F)c(-c2nn[nH]n2)c(N2CCN(Cc3cccnn3)[C@@H](C)C2)c1` [Compound I-5, (S)-3-((4-(3-(difluoromethoxy)-5-isobutyl-2-(2H-tetrazol-5-yl)phenyl)-2-methylpiperazin-1-yl)methyl)pyridazine], for which the IC50 in series [1] is 2.4 nM; in series [3], 22800 nM. Moreover, the AUC(0-t) in series [4] stood at 2290 ng·h/mL. Further, the Cmax (commonly the maximum level reached in the sampled fluid or tissue) in series [4] is 1320 ng/mL.
Turning to `CC(C)Cc1cc(OC(F)(F)F)c(-c2nn[nH]n2)c(N2CCN(Cc3cccnn3)[C@@H](C)C2)c1` [Compound I-6, (S)-3-((4-(5-isobutyl-2-(2H-tetrazol-5-yl)-3-(trifluoromethoxy)phenyl)-2-methylpiperazin-1-yl)methyl)pyridazine], in series [1], the IC50 is 3.6 nM.
The same measure, in the same setting: to `Cc1nnc(CN2CCN(c3cc(CC(C)C)cc(C(F)F)c3-c3nn[nH]n3)C[C@@H]2C)s1` [Compound I-7, (2S)-4-(3-(difluoromethyl)-2-(3H-1,2,3,4-tetrazol-5-yl)-5-isobutylphenyl)-2-methyl-1-((5-methyl-1,3,4-thiadiazol-2-yl)methyl)piperazine] belongs 8 nM; to `Cc1nnc(CN2CCN(c3cc(CC(C)C)cc(OC(F)F)c3-c3nn[nH]n3)C[C@@H]2C)s1` [Compound I-8, (2S)-4-(3-((difluoromethyl)oxy)-2-(3H-1,2,3,4-tetrazol-5-yl)-5-isobutylphenyl)-2-methyl-1-((5-methyl-1,3,4-thiadiazol-2-yl)methyl) piperazine], 2.5 nM.
On to `CC(C)Cc1cc(F)c(-c2nn[nH]n2)c(N2CCN(Cc3cccnn3)[C@@H](C)C2)c1` [Control Compound I, reference compound], for which the figures for the IC50 in series [1] and in series [3] were 12 nM and 2800 nM, respectively. The AUC(0-t) in series [2] was 10000 ng·h/mL; in series [4], 1300 ng·h/mL. Moreover, the results for the Cmax in series [2] and in series [4] were 3240 ng/mL and 850 ng/mL, respectively.
